Values after ≈ are worked out from the molar mass of the structure shown. A value given as a limit tells only on which side of the number the result lay.

Assay [1] deals with Candida albicans. The experiment in a line: Antifungal activity against Candida albicans assessed as reduction in microbial growth. The assay is classed as functional.
For assay [2], the system named is Aspergillus fumigatus. Kind of assay: Antifungal activity against Aspergillus fumigatus CGMCC3 7795 assessed as reduction in fungal growth incubated for 48 hrs by CLSI based microdilution analysis. The assay is classed as functional. In general terms: In broth dilution the organism is exposed to a series of concentrations in liquid medium.
For assay [3], the system named is Trichophyton rubrum. Kind of assay: Antifungal activity against Trichophyton rubrum 0501124 assessed as inhibition of fungal growth incubated for 24 hrs by broth microdilution method. The assay is classed as functional.
Assay [4] relates to Trichophyton rubrum. The experiment in a line: Antifungal activity against Trichophyton rubrum assessed as fungal growth inhibition incubated for 5 to 7 days by NCCLS based assay. The class given is functional. To be noted: time 5-7 day.
Assay [5] has as its system Candida albicans. Kind of assay: Antifungal activity against Candida albicans ATCC 10231 assessed as growth inhibition measured for 24 hrs by CLSI based method. The class given is functional.
Assay [6] has as its system Candida albicans. The experiment in a line: Antifungal activity against Candida albicans ATCC 96901. The class given is functional.
For assay [7], the system named is Candida albicans. Kind of assay: Antimicrobial activity against Candida albicans 90028 assessed as microbial growth inhibition by broth microdilution method. The assay is classed as functional.
Assay [8] relates to Candida albicans. Kind of assay: Antifungal activity against Candida albicans SC5314 assessed as reduction in microbial growth incubated for 24 hrs by serial dilution method. The assay is classed as functional.
Assay [9] deals with Candida albicans. The experiment in a line: Antifungal activity against Candida albicans ATCC 76615 assessed as fungal growth inhibition incubated for 5 to 7 days by NCCLS based assay. The assay is classed as functional. As to conditions: time 5-7 day.
The test system of assay [10] is Nakaseomyces glabratus. The experiment in a line: Antifungal activity against Candida glabrata ATCC 15126 assessed as reduction in fungal growth incubated for 24 hrs by CLSI based microdilution analysis. The assay is classed as functional.
Assay [11] concerns Candida albicans. Kind of assay: Antifungal activity against Candida albicans assessed as reduction in fungal growth incubated for 24 hrs by broth microdilution method. The assay is classed as functional, organism-based.
Assay [12] concerns Nannizzia gypsea. Kind of assay: Antifungal activity against Microsporum gypseum assessed as fungal growth inhibition incubated for 48 hrs by microplate reader assay. The class given is functional.
The test system of assay [13] is Candida albicans. The experiment in a line: Antifungal activity against Candida albicans ATCC 10231 assessed as growth inhibition measured after 48 hrs by CLSI based method. The class given is functional, organism-based. As to conditions: ATCC 10231, 48 h.
For assay [14], the system named is [Candida] auris. The experiment in a line: Antifungal activity against Candida auris CBS 12373 assessed as reduction in microbial growth incubated for 24 hrs by serial dilution method. The assay is classed as functional. To be noted: Candidozyma auris.
The target of assay [15] is Cytochrome P450 3A4 (Homo sapiens, UniProt P08684). The experiment in a line: Inhibition of CYP3A4 (unknown origin). The class given is ADME.
Assay [16] deals with Candida albicans. The experiment in a line: Antifungal activity against Candida albicans SC5314 assessed as reduction in fungal growth incubated for 24 hrs by serial dilution method. The assay is classed as functional.
Assay [17] has as its system Pichia kudriavzevii. Kind of assay: Antifungal activity against Candida krusei ATCC 6258 assessed as reduction in fungal growth by NCCLS method. The class given is functional.

Sequence of Cytochrome P450 3A4 (P08684 whole entry): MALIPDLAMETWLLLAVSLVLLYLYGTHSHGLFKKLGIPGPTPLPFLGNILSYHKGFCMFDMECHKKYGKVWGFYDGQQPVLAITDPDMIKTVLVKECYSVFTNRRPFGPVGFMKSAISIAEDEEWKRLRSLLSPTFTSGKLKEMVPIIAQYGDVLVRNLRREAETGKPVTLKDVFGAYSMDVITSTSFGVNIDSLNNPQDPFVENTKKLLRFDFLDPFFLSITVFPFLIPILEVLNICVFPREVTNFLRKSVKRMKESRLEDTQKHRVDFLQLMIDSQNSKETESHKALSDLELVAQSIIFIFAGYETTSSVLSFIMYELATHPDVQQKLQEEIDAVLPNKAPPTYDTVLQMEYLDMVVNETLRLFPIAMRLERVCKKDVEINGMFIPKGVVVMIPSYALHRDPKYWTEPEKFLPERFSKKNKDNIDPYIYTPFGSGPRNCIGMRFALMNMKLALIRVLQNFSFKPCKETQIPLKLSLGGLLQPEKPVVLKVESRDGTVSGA

As usually defined, the MIC50 is the lowest concentration that inhibits either 50% of growth or 50% of the strains tested, depending on the study. For `N#Cc1ccc(COc2ccc(C#Cc3ccc(C(F)(F)[C@](O)(Cn4cnnn4)c4ccc(F)cc4F)nc3)cc2)cc1` [VT-1598], the MIC50 turned out to be 0.007 µg/mL in assay [1] and 0.25 µg/mL (≈ 0.428 µM) in assay [2]. For orientation: MIC means the lowest concentration that inhibits growth of the organism. Turning to `Clc1ccc(C(Cn2ccnc2)[Se]C(Cn2ccnc2)c2ccc(Cl)cc2)cc1` (centres undefined), the MIC in assay [1] came out at 2 µg/mL. Regarding `N#Cc1ccc(COc2ccc(C#Cc3ccc(C(F)(F)C(O)(Cn4cnnn4)c4ccc(F)cc4F)nc3)cc2)cc1` (centres undefined), the MIC50 in [3] is 8 µg/mL (≈ 13.7 µM); in [1], 0.031 µg/mL. By MIC80 is commonly meant an inhibitory concentration at the 80% level, which refers to growth in some studies and to a panel of isolates in others. For the molecule `O=c1n(-c2ccc(C(F)(F)C(O)(Cn3cnnn3)c3ccc(F)cc3F)nc2)cnn1C1CCCC1` (centres undefined), the MIC80 in assay [4] came to 0.125 µg/mL (≈ 0.248 µM). Take `Fc1ccc([Se]C(Cn2ccnc2)c2ccc(F)cc2F)cc1` (centres undefined): the MIC in [5] amounted to 0.02 µg/mL (≈ 0.0525 µM). On to `Clc1ccc(C(Cn2ccnc2)[Se][Se]C(Cn2ccnc2)c2ccc(Cl)cc2Cl)c(Cl)c1` (centres undefined), for which the lowest concentration to inhibit growth in assay [6] (MIC) was 0.25 µg/mL (≈ 0.392 µM). Usually MIC90 stands for an inhibitory concentration at the 90% level, which refers to growth in some studies and to a panel of isolates in others. Consider `CC(C)[C@@H](C)/C=C/[C@@H](C)[C@H]1CC[C@H]2C3=CC=C4C[C@@H](O)CC[C@]4(C)[C@H]3CC[C@]12C` [ERGOSTEROL], for which the MIC90 in [7] came to 512 µg/mL (≈ 1290 µM). As for `O[C@@](Cn1cnnn1)(c1ccc(F)cc1F)C(F)(F)c1ccc(-c2ccc(OC(F)(F)F)cc2)cn1`, the MIC50 in assay [8] was at most 0.001 µg/mL. Consider `C[C@H](NC(=O)c1ccc2ccccc2n1)C(=O)NCc1ccncc1`, for which, in [9], the minimal inhibitory concentration (MIC) is 0.125 µg/mL (≈ 0.374 µM). Take `O=C(O)c1cc(O)c(O)c(O)c1` [GALLIC ACID]: in [10], the minimum inhibitory concentration (MIC) stood at 12.5 µg/mL (≈ 73.5 µM). Take `Clc1ccc(C(Cn2ccnc2)[Se]Cc2ccccc2Cl)c(Cl)c1` (centres undefined): in [5], the MIC is 0.01 µg/mL (≈ 0.0225 µM). Same read-out and setting: then `Cc1cccc(C)c1[Se]C(Cn1ccnc1)c1ccc(F)cc1` (centres undefined), with 0.03 µg/mL (≈ 0.0804 µM). In general, IC50 refers to the concentration that gives 50% inhibition. Take `CCC/C=C/C=C/C=C(\C)[C@@H]1OC[C@H](C)[C@H](OC)[C@H]1OC(=O)CN`: the IC50 in [11] amounted to 0.47 µM. Turning to `O=c1n(-c2ccc(C(F)(F)C(O)(Cn3cnnn3)c3ccc(F)cc3F)nc2)cnn1C1CCCCC1` (centres undefined), the MIC80 in assay [12] was 4 µg/mL (≈ 7.71 µM); in assay [4], 2 µg/mL (≈ 3.86 µM). Also, the MIC50 in assay [3] was 2 µg/mL (≈ 3.86 µM). For the molecule `CC(C)(C)Cn1ncn(-c2ccc(C(F)(F)C(O)(Cn3cnnn3)c3ccc(F)cc3F)nc2)c1=O` (centres undefined), the figures for the MIC80 in assay [12] and in assay [4] were 4 µg/mL (≈ 7.9 µM) and 2 µg/mL (≈ 3.95 µM), respectively. Besides, in assay [3], the MIC50 is 2 µg/mL (≈ 3.95 µM). As for `OC(Cn1cnnn1)(c1ccc(F)cc1F)C(F)(F)c1ccc(C#Cc2ccc(F)cc2)cn1` (centres undefined), in assay [3], the MIC50 was above 64 µg/mL. Take `CC(C)(C)c1ccc(-c2nnc(Nc3ccc(Cl)cc3)o2)cc1`: the concentration for half-maximal inhibition (IC50) was 0.9 µg/mL (≈ 2.75 µM) in assay [13] and 30.5 µM in assay [15]. For the same molecule, the MIC50 in [14] worked out at 0.8 µg/mL; in assay [16] it was 0.5 µg/mL (≈ 1.53 µM). With `C[C@H](C(=O)NC[C@](O)(Cn1cncn1)c1ccc(F)cc1F)c1ccc(-c2ccccc2)c(F)c1`, the MIC80 in assay [17] came out at 0.007 µg/mL (≈ 0.0146 µM).

Regarding `C[C@H](NC(=O)c1ccc2c(c1)OCCO2)C(=O)NCc1ccncc1`, the MIC in assay [9] worked out at 0.125 µg/mL (≈ 0.366 µM). Regarding `Cc1ccccc1[Se]C(Cn1ccnc1)c1ccc(Cl)cc1` (centres undefined), in [5], the minimum inhibitory concentration (MIC) amounted to 0.03 µg/mL (≈ 0.0798 µM). In the case of `O=C(N[C@@H](Cn1ccnc1)C(=O)NCc1ccccc1)c1ccc2ccccc2c1`, the minimal inhibitory concentration (MIC) in assay [9] worked out at 0.25 µg/mL (≈ 0.627 µM). For the molecule `CC(C)[C@H](NC(=O)c1ccc2c(c1)OCCO2)C(=O)NCc1cccnc1`, the MIC in assay [9] is 0.125 µg/mL (≈ 0.338 µM). For the molecule `O=C(CNC(=O)c1ccc2ccccc2n1)NCc1ccncc1`, in assay [9], the minimum inhibitory concentration (MIC) turned out to be 0.125 µg/mL (≈ 0.39 µM). Turning to `CC(C)Cc1ccc([C@H](C)C(=O)NC[C@](O)(Cn2cncn2)c2ccc(F)cc2F)cc1`, in assay [17], the MIC80 was 0.003 µg/mL (≈ 0.00678 µM). Regarding `Cc1cccc(C)c1[Se]C(Cn1ccnc1)c1ccc(Cl)cc1` (centres undefined), the minimum inhibitory concentration (MIC) in [1] is 0.03 µg/mL.
